In test [1] the test system is indomethacin induced gastric lesions. The conditions noted are these: dose 15.6 mg/kg; cited from earlier work.
In test [2] the test system is aspirin induced gastric lesions. To be noted: dose 62.5 mg/kg; cited from earlier work.
For another test, the system named is small bowel ulcers. The conditions noted are these: rats; yeast RNA together with L-arginine; cited from earlier work.
In test [3] the test system is patients with gastric reflux / heartburn. Nature of the test: Patient reports of relief of gastric reflux / heartburn after oral L-arginine compositions. The conditions noted are these: for relief of gastric reflux due to stress: one patient. Type of test: in vivo, human. From the text:
A patient having ulcerations in the upper small intestine who routinely took omeprazole or lansoprazole complained of heartburn on laying down.

We go through 3 compounds from US20070203242A1, “Method for treating gastric reflux” (priority 2006, published 2007).

Each structure is given as a SMILES string.

Take `NC(=O)CC[C@H](N)C(=O)O` [Glutamine, L-glutamine]: the “prevention of indomethacin induced gastric lesions” value in test [1] is reported as “ineffective”. The “prevention of aspirin induced gastric lesions” value in test [2] is “completely ineffective”.

Turning to `N=C(N)NCCC[C@H](N)C(=O)O` [L-arginine], the “decrease in ulcer number” value in the test with small bowel ulcers is recorded as 34%. Also, the “L-arginine required for complete control of the gastric reflux” value in test [3] (daily, severely afflicted patient) lay within 1 to 4 g. Besides, in test [3] (one patient with reflux due to stress, L-arginine 1 gram dose), the “time to complete cessation of all symptoms” value is recorded as “complete cessation of all symptoms within one minute”. Moreover, in test [3] (L-arginine 1 gram dose), the “relief of gastric reflux due to stress” value is reported as “immediate relief”.

Turning to `O=C([O-])[O-].[Ca+2]` [calcium carbonate antacids, calcium carbonate, reference compound], the “relief of gastric reflux due to stress” value in test [3] (L-arginine 1 gram dose) is given as “no relief”.
